pEC50: −log10 of the molar value. In brackets after ≈: the same amount, converted by molar mass. Where two headings read alike, the source gives them in different places.
Columns and labels:
hTRPM8 = target: T1, hTRPM8 (Homo sapiens, UniProt Q7Z2W7); experiment: hTRPM8 agonist assay in a mammalian cell line stably expressing hTRPM8; format: cell-based
T1 construct: expressed in transfected cells
Protocol: A mammalian cell line derivative which stably expresses hTRPM8 was used in biological assays in association with testing the present compounds with cool-tasting or -feeling properties (Servant et al. US 2007/0259354 A1 and references cited therein). Typical compound concentrations tested were 100 μM, 30 μM, 10 μM, 3.3 μM, 1.1 μM, 0.37 μM, 0.12 μM, 0.04 μM, 0.01 μM and more dilutions for very potent compounds. The present compounds have shown strong activity as agonists of hTRPM8. […] For the sake of comparison, the EC50 of Comparative Compound 1, which was previously disclosed in U.S. 2013/0324557 A1 and has the structure

Solubility studies = format: physicochemical
Protocol: For the sake of comparison, the solubility of Comparative Compound 1, which was previously disclosed in U.S. 2013/0324557 A1, was also measured.

panelists = experiment: Cool Line Scale Test (sensory study, cooling intensity versus 45 μM WS-3); format: in vivo, human; details: for Sensory Results: cooling compared with 45 μM WS-3: 5 μM compound, Low Sodium Buffer pH ~7.1, 0.1% ethanol, 15 point line scale; for lingering effect: cool line scale test
Protocol: A typical sensory study is described below followed by Table 5 summarizing sensory results of Compounds 101-105.
All samples made with Low Sodium Buffer (LSB) pH ˜7.1 and contain 0.1% ethanol.
Compounds are rated on a 15 point line scale where 45 μM WS-3 (N-Ethyl-p-menthane-3-carboxamide) is ranked as a 5 in cool intensity. In most cases, the compounds are tested to determine at what concentration the cooling intensity is equivalent to 45 μM WS-3. In each test, the panelist is presented with a 0 μM control sample, a 45 μM WS-3 control sample and the experimental compound sample and asked to rate the cooling intensity of each sample. [0218]

[1] = cell line stably expressing hTRPM8, read-out: EC50
[2] = aqueous buffer, pH 4.0, read-out: Solubility (pH 4.0)
[3] = pH 7.1, aqueous buffer, read-out: Solubility (pH 7.1)

T1 sequence (Q7Z2W7 whole entry): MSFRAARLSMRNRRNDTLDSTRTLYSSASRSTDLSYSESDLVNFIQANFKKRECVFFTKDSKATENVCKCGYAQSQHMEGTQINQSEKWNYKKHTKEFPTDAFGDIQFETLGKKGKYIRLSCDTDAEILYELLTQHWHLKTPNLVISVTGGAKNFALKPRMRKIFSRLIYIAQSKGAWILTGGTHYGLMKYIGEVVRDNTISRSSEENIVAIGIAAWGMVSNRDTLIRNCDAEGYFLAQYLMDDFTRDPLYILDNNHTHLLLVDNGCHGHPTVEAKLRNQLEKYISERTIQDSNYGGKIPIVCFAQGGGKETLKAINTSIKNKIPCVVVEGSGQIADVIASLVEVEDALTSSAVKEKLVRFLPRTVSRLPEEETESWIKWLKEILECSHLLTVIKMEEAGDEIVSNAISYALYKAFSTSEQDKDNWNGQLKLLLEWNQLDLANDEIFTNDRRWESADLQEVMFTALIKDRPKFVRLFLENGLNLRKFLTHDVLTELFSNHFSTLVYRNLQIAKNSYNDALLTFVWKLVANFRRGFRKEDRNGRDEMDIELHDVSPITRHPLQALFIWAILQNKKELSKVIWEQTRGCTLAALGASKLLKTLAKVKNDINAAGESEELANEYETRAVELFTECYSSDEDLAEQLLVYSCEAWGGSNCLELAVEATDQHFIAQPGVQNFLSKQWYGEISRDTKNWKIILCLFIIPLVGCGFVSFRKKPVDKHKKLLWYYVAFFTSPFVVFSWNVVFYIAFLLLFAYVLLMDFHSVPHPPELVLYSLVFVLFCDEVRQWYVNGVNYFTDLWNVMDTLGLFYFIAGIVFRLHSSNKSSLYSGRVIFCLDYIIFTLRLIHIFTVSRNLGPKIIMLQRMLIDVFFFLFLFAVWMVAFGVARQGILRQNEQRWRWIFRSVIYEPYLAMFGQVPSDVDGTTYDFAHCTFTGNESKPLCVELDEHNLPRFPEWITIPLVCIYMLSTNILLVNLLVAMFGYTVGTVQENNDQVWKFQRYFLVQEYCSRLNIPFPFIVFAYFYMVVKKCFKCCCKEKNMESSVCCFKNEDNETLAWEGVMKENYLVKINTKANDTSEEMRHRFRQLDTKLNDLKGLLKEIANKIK

SMILES	pEC50 (hTRPM8; [1])	solubility (Solubility studies; [2]) [µM]	solubility (Solubility studies; [3]) [µM]	Solubility (pH 4.0) (Solubility studies; pH 4.0)	Solubility (pH 7.1) (Solubility studies)	Sensory Results: cooling compared with 45 μM WS-3 (panelists)	lingering effect (panelists)	pEC50 (hTRPM8)
Cc1ccc(OCC(=O)N(Cc2cccs2)c2ccn[nH]2)cc1 [Comparative Compound 1, reference compound]	9.52	106 (≈ 34.7 µg/mL)	171 (≈ 56 µg/mL)					
Cc1cccc(OCC(=O)N(Cc2cccs2)c2cc[nH]n2)c1 [Compound 101, N-(1H-pyrazol-3-yl)-N-(thiophen-2-ylmethyl)-2-(m-tolyloxy)acetamide]	8.21	517 (≈ 169 µg/mL)	152 (≈ 49.8 µg/mL)	unexpectedly superior solubility				
O=C(COc1ccc(F)cc1)N(Cc1cccs1)c1cc[nH]n1 [Compound 102, 2-(4-flourophenoxy)-N-(1H-pyrazol-5-yl)-N-(thiophen-2-ylmethyl)acetamide]	7.97		503 (≈ 167 µg/mL)		unexpectedly superior solubility			
COc1ccc(OCC(=O)N(Cc2cccs2)c2cc[nH]n2)cc1 [Compound 103, 2-(4-methoxyphenoxy)-N-(1H-pyrazol-3-yl)-N-(thiophen-2-ylmethyl)acetamide]	8.31		403 (≈ 138 µg/mL)		unexpectedly superior solubility	equivalent to the cooling 45	unexpected lingering effect	
CCc1ccc(OCC(=O)N(Cc2cccs2)c2cc[nH]n2)cc1 [Compound 104, 2-(4-ethylphenoxy)-N-(1H-pyrazol-3-yl)-N-(thiophen-2-ylmethyl)acetamide]	> 9.00					significantly more cooling	unexpected lingering effect	
Cc1ccc(OCC(=O)N(Cc2cccs2)c2cc[nH]n2)cc1C [Compound 105, 2-(3,4-dimethylphenoxy)-N-(1H-pyrazol-3-yl)-N-(thiophen-2-ylmethyl)acetamide]							unexpected lingering effect	9.15
